Entries after “also recorded” stand apart in the source; their conditions may differ.
Assay: Phase I dose escalation study: safety, tolerability, DLT and MTD
Type: in vivo

For Cc1cccc2c1NC(=O)[C@@H](NC(=O)[C@H](CCC(F)(F)F)[C@H](CCC(F)(F)F)C(N)=O)N=C2c1cccc(F)c1 [BMS-986115], the “Rash maculopapular (drug related AE, all grades)” value (Arm A QD 0.6 mg (N = 2)) was 0 n (%), the “Sinusitis (drug related AE, all grades)” value (Arm A QD 0.6 mg (N = 2)) was 0 n (%) and the “Urticaria (drug related AE, Grade 3 and 4)” value (Arm A QD 0.6 mg (N = 2)) was 0 n (%). For the same compound, the “Vision blurred (drug related AE, all grades)” value (Arm A QD 0.6 mg (N = 2)) was 0 n (%), the “Vomiting (drug related AE, Grade 3 and 4)” value (Arm A QD 0.6 mg (N = 2)) was 0 n (%) and the “Vomiting (drug related AE, all grades)” value (Arm A QD 0.6 mg (N = 2)) was 1 (50) n (%). The “Weight decreased (drug related AE, all grades)” value (Arm A QD 0.6 mg (N = 2)) was 0 n (%), the “No. of patients with DLTs” value (Arm A QD 0.6 mg, 2 DLT evaluable patients) was 0 and the “Abdominal distension (drug related AE, all grades)” value (Arm A QD 1.2 mg (N = 6)) was 0 n (%). The “Abdominal pain (drug related AE, Grade 3 and 4)” value (Arm A QD 1.2 mg (N = 6)) was 0 n (%), the “Abdominal pain (drug related AE, all grades)” value (Arm A QD 1.2 mg (N = 6)) was 0 n (%) and the “Blood creatinine increased (drug related AE, all grades)” value (Arm A QD 1.2 mg (N = 6)) was 0 n (%). For the same compound, the “Colitis (drug related AE, Grade 3 and 4)” value (Arm A QD 1.2 mg (N = 6)) was 1 (17) n (%), the “Cough (drug related AE, Grade 3 and 4)” value (Arm A QD 1.2 mg (N = 6)) was 0 n (%) and the “Cough (drug related AE, all grades)” value (Arm A QD 1.2 mg (N = 6)) was 0 n (%). The “Decreased Appetite (drug related AE, Grade 3 and 4)” value (Arm A QD 1.2 mg (N = 6)) was 0 n (%), the “Decreased Appetite (drug related AE, all grades)” value (Arm A QD 1.2 mg (N = 6)) was 2 (33) n (%) and the “Dehydration (drug related AE, Grade 3 and 4)” value (Arm A QD 1.2 mg (N = 6)) was 0 n (%). For the same compound, the “Dehydration (drug related AE, all grades)” value (Arm A QD 1.2 mg (N = 6)) was 2 (33) n (%), the “Dermatitis acneiform (drug related AE, all grades)” value (Arm A QD 1.2 mg (N = 6)) was 0 n (%) and the “Diarrhoea (drug related AE, Grade 3 and 4)” value (Arm A QD 1.2 mg (N = 6)) was 1 (17) n (%). The “Diarrhoea (drug related AE, all grades)” value (Arm A QD 1.2 mg (N = 6)) was 6 (100) n (%), the “Dry mouth (drug related AE, all grades)” value (Arm A QD 1.2 mg (N = 6)) was 1 (17) n (%) and the “Dry skin (drug related AE, all grades)” value (Arm A QD 1.2 mg (N = 6)) was 1 (17) n (%). The “Dysgeusia (drug related AE, all grades)” value (Arm A QD 1.2 mg (N = 6)) was 2 (33) n (%), the “Dyspepsia (drug related AE, all grades)” value (Arm A QD 1.2 mg (N = 6)) was 1 (17) n (%) and the “Dysphonia (drug related AE, all grades)” value (Arm A QD 1.2 mg (N = 6)) was 0 n (%). The “Fatigue (drug related AE, Grade 3 and 4)” value (Arm A QD 1.2 mg (N = 6)) was 0 n (%), the “Fatigue (drug related AE, all grades)” value (Arm A QD 1.2 mg (N = 6)) was 2 (33) n (%) and the “Flatulence (drug related AE, all grades)” value (Arm A QD 1.2 mg (N = 6)) was 0 n (%). For the same compound, the “Hypocalcaemia (drug related AE, Grade 3 and 4)” value (Arm A QD 1.2 mg (N = 6)) was 0 n (%), the “Hypocalcaemia (drug related AE, all grades)” value (Arm A QD 1.2 mg (N = 6)) was 0 n (%) and the “Hypokalaemia (drug related AE, Grade 3 and 4)” value (Arm A QD 1.2 mg (N = 6)) was 1 (17) n (%). For the same compound, the “Hypokalaemia (drug related AE, all grades)” value (Arm A QD 1.2 mg (N = 6)) was 3 (50) n (%), the “Hyponatraemia (drug related AE, Grade 3 and 4)” value (Arm A QD 1.2 mg (N = 6)) was 0 n (%) and the “Hyponatraemia (drug related AE, all grades)” value (Arm A QD 1.2 mg (N = 6)) was 0 n (%). For the same compound, the “Hypophosphataemia (drug related AE, Grade 3 and 4)” value (Arm A QD 1.2 mg (N = 6)) was 2 (33) n (%), the “Hypophosphataemia (drug related AE, all grades)” value (Arm A QD 1.2 mg (N = 6)) was 6 (100) n (%) and the “Ileus (drug related AE, Grade 3 and 4)” value (Arm A QD 1.2 mg (N = 6)) was 0 n (%). For the same compound, the “Increased upper airway secretion (drug related AE, all grades)” value (Arm A QD 1.2 mg (N = 6)) was 0 n (%), the “Laryngeal pain (drug related AE, all grades)” value (Arm A QD 1.2 mg (N = 6)) was 0 n (%) and the “Leucocytosis (drug related AE, Grade 3 and 4)” value (Arm A QD 1.2 mg (N = 6)) was 0 n (%). For the same compound, the “Mouth ulceration (drug related AE, all grades)” value (Arm A QD 1.2 mg (N = 6)) was 1 (17) n (%), the “Nausea (drug related AE, Grade 3 and 4)” value (Arm A QD 1.2 mg (N = 6)) was 0 n (%) and the “Nausea (drug related AE, all grades)” value (Arm A QD 1.2 mg (N = 6)) was 4 (67) n (%). The “Pruritus (drug related AE, Grade 3 and 4)” value (Arm A QD 1.2 mg (N = 6)) was 0 n (%), the “Pruritus (drug related AE, all grades)” value (Arm A QD 1.2 mg (N = 6)) was 0 n (%) and the “Pulmonary embolism (drug related AE, Grade 3 and 4)” value (Arm A QD 1.2 mg (N = 6)) was 0 n (%). For the same compound, the “Rash (drug related AE, all grades)” value (Arm A QD 1.2 mg (N = 6)) was 3 (50) n (%), the “Rash maculopapular (drug related AE, all grades)” value (Arm A QD 1.2 mg (N = 6)) was 0 n (%) and the “Sinusitis (drug related AE, all grades)” value (Arm A QD 1.2 mg (N = 6)) was 1 (17) n (%). For the same compound, the “Urticaria (drug related AE, Grade 3 and 4)” value (Arm A QD 1.2 mg (N = 6)) was 0 n (%), the “Vision blurred (drug related AE, all grades)” value (Arm A QD 1.2 mg (N = 6)) was 0 n (%) and the “Vomiting (drug related AE, Grade 3 and 4)” value (Arm A QD 1.2 mg (N = 6)) was 0 n (%). The “Vomiting (drug related AE, all grades)” value (Arm A QD 1.2 mg (N = 6)) was 2 (33) n (%), the “Weight decreased (drug related AE, all grades)” value (Arm A QD 1.2 mg (N = 6)) was 1 (17) n (%) and the “Description of DLT” value (Arm A QD 1.5 mg) was “Gr 3 nausea; also recorded: G3 nausea”. For the same compound, the “Description of study drug toxicity that led to treatment discontinuation” value (Arm A QD 1.5 mg) was “G3 Nausea concurrent with G2 diarrhoea (N = 1); also recorded: G2 Dermatitis acneiform (N = 1)”, the “Abdominal distension (drug related AE, all grades)” value (Arm A QD 1.5 mg (N = 7)) was 1 (14) n (%) and the “Abdominal pain (drug related AE, Grade 3 and 4)” value (Arm A QD 1.5 mg (N = 7)) was 1 (14) n (%). The “Abdominal pain (drug related AE, all grades)” value (Arm A QD 1.5 mg (N = 7)) was 1 (14) n (%), the “Blood creatinine increased (drug related AE, all grades)” value (Arm A QD 1.5 mg (N = 7)) was 0 n (%) and the “Colitis (drug related AE, Grade 3 and 4)” value (Arm A QD 1.5 mg (N = 7)) was 0 n (%). The “Cough (drug related AE, Grade 3 and 4)” value (Arm A QD 1.5 mg (N = 7)) was 0 n (%), the “Cough (drug related AE, all grades)” value (Arm A QD 1.5 mg (N = 7)) was 2 (29) n (%) and the “Decreased Appetite (drug related AE, Grade 3 and 4)” value (Arm A QD 1.5 mg (N = 7)) was 0 n (%). For the same compound, the “Decreased Appetite (drug related AE, all grades)” value (Arm A QD 1.5 mg (N = 7)) was 1 (14) n (%), the “Dehydration (drug related AE, Grade 3 and 4)” value (Arm A QD 1.5 mg (N = 7)) was 0 n (%) and the “Dehydration (drug related AE, all grades)” value (Arm A QD 1.5 mg (N = 7)) was 0 n (%). For the same compound, the “Dermatitis acneiform (drug related AE, all grades)” value (Arm A QD 1.5 mg (N = 7)) was 4 (57) n (%).
